Assay results: the METLIN SMRT retention time set (Domingo-Almenara et al. 2019)

Test: gradient 5% acetonitrile 3 min, to 50% in 2 min, to 85% in 15 min, held 3 min, 100 µL/min
Conditions: column: Zorbax Extend-C18 2.1 x 50 mm; eluents: water / acetonitrile, 0.1% formic acid
Method in brief: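 Pure standards were run in mixtures of ~100 molecules by HPLC coupled to a quadrupole time-of-flight mass spectrometer. The column was a Zorbax Extend-C18 (2.1 × 50 mm, 1.8 μm) at 100 μL/min, with water and acetonitrile each containing 0.1% formic acid, in positive and negative ionization mode. Dead and dwell volumes were 40 μL and 900 μL. Retention time was taken from computationally picked adduct peaks, each manually inspected, with data collected over 3 months.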

Structure (SMILES) | RP-LC retention time [s]
CCN1C(=O)C(C)(C(=O)Nc2ccc(OC)cc2)Oc2cccnc21 (stereo unspecified) | 827
COc1ccc(CN2CCN(C(=O)CCC(=O)N3CCCn4nc(C)cc43)CC2)c(OC)c1OC | 595
COc1cccc2c1OC1(C)CC2NC(=O)N1c1cccc(C(=O)O)c1 (stereo unspecified) | 645
COc1ccc(N2CCN(S(=O)(=O)c3cc(-c4cc(C(F)(F)F)on4)cs3)CC2)cc1 | 1190
CCOC(=O)c1noc2ncnc(N3CCc4ccccc43)c12 | 948
CC(C)S(=O)(=O)N1CC(N(C)Cc2cccnc2)C1 | 562
COc1ccc(OC)c(CNC(=O)Cc2nnc(-c3ccc4ncccc4c3)o2)c1 | 688
Cc1cc(C)c2[nH]c3c(c(=O)c2c1)CN(CC(=O)Nc1cccc(F)c1)CC3 | 640
CCOc1ccc(-c2noc(Cn3nc(-c4ccc(CC)cc4)ccc3=O)n2)cc1 | 597
COc1cc(OC)cc(-c2noc(-c3nn(-c4ccc(Cl)cc4)ccc3=O)n2)c1 | 973
CCC(C)NC(=O)C1CCN(S(=O)(=O)c2cc(-c3noc(C(C)C)n3)sc2C)CC1 (stereo unspecified) | 1020
Cc1noc(C2CN(C(=O)Nc3cccc(F)c3C)CC23CCOCC3)n1 (stereo unspecified) | 1030
CCCC(=O)Nc1nnc(SCc2nnc(-c3ccc4c(c3)OCO4)o2)s1 | 794
COc1ccc(Cl)cc1NC(=O)c1c(O)c2cccnc2n(-c2cccc(F)c2)c1=O | 1330
CC(=O)N1CCc2cc(N3CC(C(=O)NCc4cc(F)cc(F)c4)CC3=O)ccc21 (stereo unspecified) | 690
O=C(c1c[nH]c2ccccc12)N1CCN(c2cc(-c3ccc(Cl)cc3)[nH]n2)CC1 | 811
CC(=O)N1CCC2(CC1)C(=O)N(C)c1ccccc12 | 665
CNC(=O)c1sc2nc(-c3ccc(OC)cc3)c(NCCOC)n2c1C | 656
Cc1ccc(-c2ccnc(SCC(=O)Nc3ccccc3C(F)(F)F)n2)cc1C | 1120
Cc1ccc(Cn2cccc2C(=O)C(=O)N2CCN(c3ccccn3)CC2)cc1 | 690
Cc1nn(C(C)C(=O)NCCc2c[nH]c3ccccc23)c(=O)c2c(C)n(-c3ccccc3)nc12 (stereo unspecified) | 904
CC(C)CNC(=O)C1CCCN(c2cnc3nccnc3c2)C1 (stereo unspecified) | 658

Structure (SMILES) | RP-LC retention time [s]
CCN(CC)C(=O)CS(=O)Cc1cnn(-c2ccccc2)c1-n1cccc1 (stereo unspecified) | 754
COc1ccc(OC)c(C2CCN(C(=O)c3nc(-c4oc5c(C)cccc5c4C)no3)C2)c1 (stereo unspecified) | 1310
O=S(=O)(c1ccc(F)c(Cl)c1)N1CCc2nc[nH]c2C1 | 632
CCCNC(=O)c1ccc2c(=O)n(Cc3ccccc3)c(N(CC)CC)nc2c1 | 997
COc1ccc(C(C)NC(=O)C2CCN(c3cnc4nccnc4c3)CC2)cc1 (stereo unspecified) | 695
COc1ccc(NC(=O)c2nc(C3CCC3)oc2C)cc1C(F)(F)F | 1170
CCCc1noc(-c2ccc3nnc(CC(=O)Nc4ccc(F)cc4)n3c2)n1 | 848
Cc1cc(F)ccc1NC(=O)Cn1nc2cc(-c3ccccn3)nc(C)n2c1=O | 746
COC[C@@H]1CN(Cc2cccc(OC)n2)C[C@H]1c1ccncc1 | 536
CCCCC(=O)Nc1ncn[nH]1 | 568
O=S(=O)(c1cc(-c2nnc(C3CCC3)o2)co1)N1CCN(c2ccccc2)CC1 | 1050
CCNC(=O)c1n[nH]c2c1CN(Cc1sccc1C)CC2 | 572
COc1ccccc1NC(=O)Cn1c(=O)cc(-c2nc(C3CC3)no2)c2ccccc21 | 1280
O=C(NCCn1c(=O)n(Cc2ccccc2)c2cccnc21)c1nccc2ccccc12 | 836
O=C(c1ccc(-c2ccsc2)nc1)N1CCN(c2ccccc2)CC1 | 909
O=C(Nc1ccc(N2CCN(c3ccccc3)C2=O)nc1)c1ccc(F)cc1 | 934
COc1ccc(Cl)cc1NS(=O)(=O)c1c[nH]c2ncccc12 | 763
O=C(c1cccs1)N1N=C(c2ccc3c(c2)OCO3)CC1c1ccco1 (stereo unspecified) | 919
COc1nccnc1N1CCC(NC(=O)c2ccsc2)C1 (stereo unspecified) | 645
CCn1c(=O)n(CC(=O)N2CCOCC2)c(=O)c2cnc(-c3ccc(Cl)cc3)nc21 | 934
O=C(NCCc1c[nH]c2ccccc12)C1CC(=O)N(CCc2ccccc2)C1 (stereo unspecified) | 758
Cc1nc(-c2ccc(F)cc2)sc1C(=O)N1CCC(C(C)C(=O)N2CCOCC2)CC1 (stereo unspecified) | 745

Structure (SMILES) | RP-LC retention time [s]
COc1ccccc1C(=O)N1CCN(S(=O)(=O)c2cc3c4c(c2)CCC(=O)N4CCC3)CC1 | 771
O=C(Cn1c(=O)ccc2cc(S(=O)(=O)N3CCCC3)ccc21)N1CCN(c2ccccn2)CC1 | 596
O=C(NCCc1c[nH]c2ccc(Cl)cc12)c1cccc(NC(=O)c2nnc(C3CC3)s2)c1 | 928
O=C(Nc1ccc2nc3n(c(=O)c2c1)CCCCC3)C(=O)N1CCCCCC1 | 729
Cc1cccc(-c2noc(Cn3ccnc3)n2)c1 | 630
COc1ccccc1N1CCN(Cc2nc(-c3ccccc3)no2)CC1 | 798
Cn1c(=O)c2nc(SCCC(=O)NCc3cc(F)cc(F)c3)n(C)c2n(C)c1=O | 733
Cc1ccc(CSc2nccc3c2ccn3CC(=O)NCc2cccnc2)cc1 | 823
COc1ccc(C(=O)NC2(c3nc(-c4cccnc4)no3)CCCCC2)cc1F | 938
CCN1CCn2cc(S(=O)(=O)N3CCN(c4ccccc4)CC3)cc2C1=O | 684
CCc1ccc(NC(=O)Cn2cc(C(=O)N3CCCC3)c(=O)c3ccc(C)nc32)cc1 | 759
O=C(Cc1ccccc1Br)Nc1cc(-c2cccs2)no1 | 973
CN(C)c1nc2cc(C(=O)N3CCCCC3)sc2n1-c1ccccc1 | 679
Cc1[nH]c(C)c(S(=O)(=O)N2CCC(C(=O)N(C)C3CCCCC3)CC2)c1C(=O)N1CCCCC1 | 762
O=C(CC1CCCN(c2cn[nH]c(=O)c2)C1)Nc1ccc2c(c1)OCCO2 (stereo unspecified) | 639
Cc1cc(NC(=O)C2CCCN(c3ccc(=O)n(-c4ccc(F)cc4)n3)C2)ccc1Br (stereo unspecified) | 899
CC(C)NC(=O)N(C)CCc1noc(COc2ccc(Cl)cc2)n1 | 841
COc1ccc(NC(=O)C2CCCN(c3nnc4ccccn34)C2)cc1C(F)(F)F (stereo unspecified) | 704
Cc1ccc(N2CC(c3nc(-c4ccccc4C)no3)CC2=O)cc1F (stereo unspecified) | 1130
Cc1ccc(NS(=O)(=O)c2ccc(-c3c(C)noc3C)cc2)c(C)c1 | 985
CCOc1ccccc1NC(=O)C1CCN(S(=O)(=O)c2ccc3c(c2)sc(=O)n3C)CC1 | 931
CCc1ccccc1NC(=O)N(C)CCc1noc(COc2ccccc2)n1 | 962
